# Results: US20220144815A1, “1,3,4-OXADIAZOLES AND THEIR DERIVATIVES AS NEW ANTIFUNGAL AGENTS” (Bayer Aktiengesellschaft, priority 2018, published 2022)
# Assay: Log P by HPLC on reversed phase columns, method [a] (EEC directive 79/831 Annex V.A8)
# Type: physicochemical
# Details: log P determined according to method [a] (HPLC on reversed phase columns)
# Method: Measurement of Log P values as provided herein was performed according to EEC directive 79/831 Annex V.A8 by HPLC (High Performance Liquid Chromatography) on reversed phase columns with the following methods: • ^[a] Log P value is determined by measurement of LC-UV, in an acidic range, with 0.1% formic acid in water and acetonitrile as eluent (linear gradient from 10% acetonitrile to 95% acetonitrile). • ^[b] Log P value is determined by measurement of LC-UV, in a neutral range, with 0.001 molar ammonium acetate solution in water and acetonitrile as eluent (linear gradient from 10% acetonitrile to 95% acetonitrile). • ^[c] Log P value is determined by measurement of LC-UV, in an acidic range, with 0.1% phosphoric acid and acetonitrile as eluent (linear gradient from 10% acetonitrile to 95% acetonitrile). If more than one Log P value is available within the same method, all the values are given and separated by “+”. Calibration was done with straight-chain alkan2-ones (with 3 to 16 carbon atoms) with known Log P values (measurement of Log P values using retention times with linear interpolation between successive alkanones). Lambda-max-values were determined using UV-spectra from 200 nm to 400 nm and the peak values of the chromatographic signals In table 1, the log P values were determined according to method [^a]. In table 2, the log P values were determined according to method [^a].
row,logP,Structure (SMILES)
1,2.16,FC(F)c1nnc(-c2cnc(NCC3CC3)nc2)o1 [Example I-067]
2,3.70,Fc1ccc(-c2ncc(-c3nnc(C(F)F)o3)cn2)cc1 [Example I-077]
3,2.41,O=C(O)c1ccc(-c2nnc(C(F)(F)F)s2)cc1 [Example I-008]
4,3.23,COC(=O)c1ccc(-c2nnc(C(F)(F)F)s2)cc1 [Example I-011]
5,2.18,CCn1nccc1-c1ncc(-c2nnc(C(F)F)o2)cn1 [Example I-078]
6,3.26,CC(C)(Nc1ncc(-c2nnc(C(F)F)o2)cn1)C1CC1 [Example I-084]
7,2.31,FC(F)c1nnc(-c2ccc(-n3cccn3)nc2)o1 [Example I-036]
8,2.02,CC1(NC(=O)c2ccc(-c3nnc(C(F)F)o3)cn2)CC1 [Example I-044]
9,1.73,FC(F)c1nnc(-c2ccc(-n3ccnn3)cc2)o1 [Example I-005]
10,2.54,FC(F)c1nnc(-c2cnc(Nc3ccccc3)nc2)o1 [Example I-076]
11,2.23,FC(F)c1nnc(-c2ccc(Nc3ncccn3)cc2)o1 [Example I-013]
12,2.20,O=C(O)c1ccc(-c2nnc(C(F)(F)F)o2)cc1 [Example I-004]
13,2.16,O=C(NCC1CC1)c1ccc(-c2nnc(C(F)F)o2)cn1 [Example I-046]
14,1.49,CCn1nccc1Nc1ncc(-c2nnc(C(F)F)o2)cn1 [Example I-096]
15,2.89,FC(F)c1nnc(-c2ccc(Br)cc2)o1 [Example I-009]
16,1.68,C#CCNC(=O)c1ccc(-c2nnc(C(F)F)o2)cn1 [Example I-039]
17,2.03,FC(F)c1nnc(-c2cnc(-c3cccnc3)nc2)o1 [Example I-070]
18,0.76,CN(C)Nc1ncc(-c2nnc(C(F)F)o2)cn1 [Example I-064]
19,2.70,FC(F)c1nnc(-c2cnc(C3=CCCC3)nc2)o1 [Example I-065]

# Same assay, conditions: reversed phase HPLC column; Method A: LC-UV, acidic range, 0.1% formic acid in water and acetonitrile; read-out: Log P
row,chromatographic logP,Structure (SMILES)
1,3.53,CCOC(=O)c1cnc(NC2(c3ccccc3)CCC2)nc1 [ethyl 2-[(1-phenylcyclobutyl)amino]pyrimidine-5-carboxylate]

# Same assay, conditions: reversed phase HPLC column; log P determined according to method [a] (HPLC on reversed phase columns); read-out: logP
row,chromatographic logP,Structure (SMILES)
1,4.21,"FC(F)c1nnc(-c2cnc(-c3cccc(Cl)c3)nc2)o1 [I.100, 2-(3-chlorophenyl)-5-[5-(difluoromethyl)-1,3,4-oxadiazol-2-yl]pyrimidine]"
2,2.95,"Fc1cccc(F)c1C1(Nc2ncc(-c3nnc(C(F)F)o3)cn2)CC1 [I.164, 5-[5-(difluoromethyl)-1,3,4-oxadiazol-2-yl]-N-[1-(2,6-difluorophenyl)cyclopropyl]pyrimidin-2-amine]"
3,3.54,"CCCC(Nc1ncc(-c2nnc(C(F)F)o2)cn1)c1ccccc1 (racemic) [I.140, 5-[5-(difluoromethyl)-1,3,4-oxadiazol-2-yl]-N-[(1RS)-1-phenylbutyl]pyrimidin-2-amine]"
4,2.57,"Cc1ccc(C2(Nc3ncc(-c4nnc(C(F)F)o4)cn3)COC2)cc1 [I.158, 5-[5-(difluoromethyl)-1,3,4-oxadiazol-2-yl]-N-[3-(4-methylphenyl)oxetan-3-yl]pyrimidin-2-amine]"
5,3.28,"CCON(Cc1ccccc1)c1ncc(-c2nnc(C(F)F)o2)cn1 [I.148, N-benzyl-N-{5-[5-(difluoromethyl)-1,3,4-oxadiazol-2-yl]pyrimidin-2-yl}-O-ethylhydroxylamine]"

# Same assay, conditions: reversed phase HPLC column; method [a], HPLC on reversed phase columns; read-out: logP
row,Structure (SMILES),chromatographic logP
1,"Fc1ccccc1C1(Nc2ncc(-c3nnc(C(F)(F)F)s3)cn2)CC1 [I.178, N-[1-(2-fluorophenyl)cyclopropyl]-5-[5-(trifluoromethyl)-1,3,4-thiadiazol-2-yl]pyrimidin-2-amine]",3.79
2,"CC(Nc1ncc(-c2nnc(C(F)F)o2)cn1)c1ccccn1 (racemic) [I.189, 5-[5-(difluoromethyl)-1,3,4-oxadiazol-2-yl]-N-[(1RS)-1-(pyridin-2-yl)ethyl]pyrimidin-2-amine]",1
3,"CON(c1ncc(-c2nnc(C(F)F)o2)cn1)C(C)c1cccc(C(F)(F)F)c1 (racemic) [I.184, N-{5-[5-(difluoromethyl)-1,3,4-oxadiazol-2-yl]pyrimidin-2-yl}-O-methyl-N-{(1RS)-1-[3-(trifluoromethyl)phenyl]ethyl}hydroxylamine]",3.94
4,"CC(C)C1(Nc2ncc(-c3nnc(C(F)F)o3)cn2)CC1 [I.187, 5-[5-(difluoromethyl)-1,3,4-oxadiazol-2-yl]-N-(1-isopropylcyclopropyl)pyrimidin-2-amine]",2.65
5,"O=C(c1ccc(F)cc1F)N(C(=O)c1ccc(F)cc1F)c1ncc(-c2nnc(C(F)F)o2)cn1 [I.185, N-(2,4-difluorobenzoyl)-N-{5-[5-(difluoromethyl)-1,3,4-oxadiazol-2-yl]pyrimidin-2-yl}-2,4-difluorobenzamide]",3.59

# Second part, the compound after the results:
row,chromatographic logP,Structure (SMILES)
1,4.38,"FC(F)c1nnc(-c2cnc(NC3(c4ccccc4Br)CCCCC3)nc2)o1 [I.268, N-[1-(2-bromophenyl)cyclohexyl]-5-[5-(difluoromethyl)-1,3,4-oxadiazol-2-yl]pyrimidin-2-amine]"
2,3.44,"FC(F)c1nnc(-c2cnc(NC3CCCC3c3ccccc3)nc2)o1 (racemic) [I.217, 5-[5-(difluoromethyl)-1,3,4-oxadiazol-2-yl]-N-[(1RS)-2-phenylcyclopentyl]pyrimidin-2-amine]"
3,4.05,"FC(F)c1nnc(-c2cnc(NC3(c4ccc(Cl)cc4Cl)CC3)nc2)o1 [I.255, N-[1-(2,4-dichlorophenyl)cyclopropyl]-5-[5-(difluoromethyl)-1,3,4-oxadiazol-2-yl]pyrimidin-2-amine]"
4,3.55,"CC(C)(Nc1ncc(-c2nnc(C(F)F)o2)cn1)c1ccc(Cl)cc1 [I.231, N-[2-(4-chlorophenyl)propan-2-yl]-5-[5-(difluoromethyl)-1,3,4-oxadiazol-2-yl]pyrimidin-2-amine]"
5,1.11,"CC(C)(Nc1ncc(-c2nnc(C(F)F)o2)cn1)c1ccccn1 [I.198, 5-[5-(difluoromethyl)-1,3,4-oxadiazol-2-yl]-N-[2-(pyridin-2-yl)propan-2-yl]pyrimidin-2-amine]"
6,4.4,"Fc1ccccc1C1(N(CC(F)F)c2ncc(-c3nnc(C(F)F)o3)cn2)CC1 [I.261, N-(2,2-difluoroethyl)-5-[5-(difluoromethyl)-1,3,4-oxadiazol-2-yl]-N-[1-(2-fluorophenyl)cyclopropyl]pyrimidin-2-amine]"
7,2.95,"COc1ccccc1C(C)Nc1ncc(-c2nnc(C(F)F)o2)cn1 (racemic) [I.209, 5-[5-(difluoromethyl)-1,3,4-oxadiazol-2-yl]-N-[(1RS)-1-(2-methoxyphenyl)ethyl]pyrimidin-2-amine]"
8,3.2,"CC(Nc1ncc(-c2nnc(C(F)F)o2)cn1)c1cccc(Cl)c1 (racemic) [I.213, N-[(1RS)-1-(3-chlorophenyl)ethyl]-5-[5-(difluoromethyl)-1,3,4-oxadiazol-2-yl]pyrimidin-2-amine]"
9,3.08,"CC(C)(Nc1ncc(-c2nnc(C(F)F)o2)cn1)c1ccccc1 [I.197, 5-[5-(difluoromethyl)-1,3,4-oxadiazol-2-yl]-N-(2-phenylpropan-2-yl)pyrimidin-2-amine]"
10,3.21,"FC(F)Oc1ccccc1C1(Nc2ncc(-c3nnc(C(F)F)o3)cn2)CC1 [I.248, N-{1-[2-(difluoromethoxy)phenyl]cyclopropyl}-5-[5-(difluoromethyl)-1,3,4-oxadiazol-2-yl]pyrimidin-2-amine]"
11,3.74,"FC(F)c1nnc(-c2cnc(NC3(c4cccc(Cl)c4Cl)CC3)nc2)o1 [I.253, N-[1-(2,3-dichlorophenyl)cyclopropyl]-5-[5-(difluoromethyl)-1,3,4-oxadiazol-2-yl]pyrimidin-2-amine]"
12,2.96,"O=[N+]([O-])c1cc(C2(Nc3ncc(-c4nnc(C(F)F)o4)cn3)CC2)ccc1Cl [I.259, N-[1-(4-chloro-3-nitrophenyl)cyclopropyl]-5-[5-(difluoromethyl)-1,3,4-oxadiazol-2-yl]pyrimidin-2-amine]"
13,2.75,"COc1ccc(C(C)Nc2ncc(-c3nnc(C(F)F)o3)cn2)cc1 (racemic) [I.207, 5-[5-(difluoromethyl)-1,3,4-oxadiazol-2-yl]-N-[(1RS)-1-(4-methoxyphenyl)ethyl]pyrimidin-2-amine]"
14,2.84,"Fc1ccc(C2(Nc3ncc(-c4nnc(C(F)F)o4)cn3)CC2)cc1F [I.229, 5-[5-(difluoromethyl)-1,3,4-oxadiazol-2-yl]-N-[1-(3,4-difluorophenyl)cyclopropyl]pyrimidin-2-amine]"
15,2.97,"Fc1ccc([C@H]2C[C@H]2Nc2ncc(-c3nnc(C(F)F)o3)cn2)cc1 (racemic) [I.206, 5-[5-(difluoromethyl)-1,3,4-oxadiazol-2-yl]-N-[rac-(1R,2R)-2-(4-fluorophenyl)cyclopropyl]pyrimidin-2-amine]"
16,2.9,"Fc1ccc(C(F)(F)CNc2ncc(-c3nnc(C(F)F)o3)cn2)cc1 [I.234, N-[2,2-difluoro-2-(4-fluorophenyl)ethyl]-5-[5-(difluoromethyl)-1,3,4-oxadiazol-2-yl]pyrimidin-2-amine]"
